Assay results published in article PMC8662641, “Site-Specific Labeling of Endogenous Proteins Using CoLDR Chemistry” (Journal of the American Chemical Society, 2021).

Experiments:
BTK = BTK (Homo sapiens, UniProt Q06187); assay: In-gel fluorescence labeling profile in Mino cells; settings: 2 h incubation, in-gel fluorescence
Protocol: Lysates were then diluted to 2 mg/mL in PBS. […] The samples were incubated at 25 °C for 2 h. A 20 μL amount of 4× LDS sample buffer (NuPAGE, Thermo Fisher Scientific, NP0007) was added followed by a 10 min incubation at 70 °C.
The 1× chloroform, 4× methanol, and 3× water were added to the samples and vortexed thoroughly. The samples were spun down for 10 min at 4 °C. The top layer was aspirated, and the pellet was resuspended in 4× methanol. The sample was vortexed and spun down again for 10 min at 4 °C, the solution was removed, and the pellet was dried for 2 min. The pellet was dissolved in 42 μL of PBS followed by 14 μL of 4× sample buffer. The samples were then loaded on a 4–20% Bis-Tris gel (SurePAGE, GeneScript) and imaged using a Typhoon FLA 9500 scanner.

BTK kinase domain = BTK kinase domain (Homo sapiens, UniProt Q06187); assay: Time-dependent labeling of BTK, kinact and Ki of 1b; format: binding; set-up: BTK kinase domain was expressed and purified as previously reported; made in house
Protocol: To assess the kinetic parameters of labeling, we performed a time-dependent incubation experiment of BTK (200 nM) with various concentrations of 1b (300–2000 nM, 20 mM Tris, pH 8, 14 °C; […]. page 9:
Figure S5. Determination of kinact and Ki parameters of CoLDR probe 1b. A. Depletion of unlabelled BTK (200 nM) […]
reaction was monitored by LC-MS. B. The rate constants as extrapolated from A. as a function of the concentration […]
(1 picture or pasted object on this page, not shown here)
Analysis was done using MaxQuant 1.6.3.4. The sequence of BTK was used for the analysis. The digestion enzyme was set to Trypsin with a maximum number of missed cleavages of 0.
Carbamidomethyl and the modification by the molecule were included as variable modifications on cysteine. The “Re-quantify” option was enabled. Contaminants were included. […] The triplicate measured for each compound (or for DMSO-treated protein) was analyzed separately.
Following MaxQuant analysis, only fully cleaved peptides were quantified and cysteine-containing peptides that were not modified by either iodoacetamide or compound were ignored.
The intensity for each peptide was calculated as the average of the three triplicates. […]
from the stock solution. […] The labeling percentage for a compound was determined as the labeling of a specific compound (alone or together with other compounds) divided by the overall detected protein species. […]

Sequence of BTK kinase domain (Q06187 402-655 limits assumed): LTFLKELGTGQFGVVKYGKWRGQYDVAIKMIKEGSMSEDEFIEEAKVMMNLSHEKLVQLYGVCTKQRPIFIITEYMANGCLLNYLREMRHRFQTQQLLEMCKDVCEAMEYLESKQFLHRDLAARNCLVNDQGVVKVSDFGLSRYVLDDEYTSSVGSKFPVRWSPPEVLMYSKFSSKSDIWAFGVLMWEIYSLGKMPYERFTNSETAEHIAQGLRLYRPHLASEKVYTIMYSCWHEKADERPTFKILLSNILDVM
Sequence of BTK (Q06187 whole entry, the tested form may be a part): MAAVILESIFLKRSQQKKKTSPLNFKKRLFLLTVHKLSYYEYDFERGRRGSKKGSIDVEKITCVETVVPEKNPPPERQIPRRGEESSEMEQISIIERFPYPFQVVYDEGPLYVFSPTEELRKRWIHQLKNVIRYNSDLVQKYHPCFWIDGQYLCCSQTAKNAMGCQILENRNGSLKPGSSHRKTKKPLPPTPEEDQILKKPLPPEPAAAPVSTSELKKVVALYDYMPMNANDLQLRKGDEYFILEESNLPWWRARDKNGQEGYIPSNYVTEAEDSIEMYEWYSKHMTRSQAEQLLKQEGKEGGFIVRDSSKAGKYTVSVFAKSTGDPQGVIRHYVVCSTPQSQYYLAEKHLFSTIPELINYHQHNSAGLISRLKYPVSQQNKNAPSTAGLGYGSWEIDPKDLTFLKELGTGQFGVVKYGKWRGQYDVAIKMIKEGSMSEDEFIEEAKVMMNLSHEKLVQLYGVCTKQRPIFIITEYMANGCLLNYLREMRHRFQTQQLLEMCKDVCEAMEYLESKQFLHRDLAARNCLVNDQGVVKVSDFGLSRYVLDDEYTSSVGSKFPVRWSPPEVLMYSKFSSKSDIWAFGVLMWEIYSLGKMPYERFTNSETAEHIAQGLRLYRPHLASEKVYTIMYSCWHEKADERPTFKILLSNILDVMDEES

Structure (SMILES): C#CCCNC(=O)C(=C)CN1CCC[C@@H](n2nc(-c3ccc(Oc4ccccc4)cc3)c3c(N)ncnc32)C1 [1b]
- labeling of BTK in live Mino cells (BTK): robust labeling even at a concentration of 10 nM
- reversible binding component weaker than ibrutinib (BTK kinase domain; 1b Ki compared with reported ibrutinib Ki): about 5 fold
- kinact (BTK kinase domain; BTK 200 nM, 1b 300–2000 nM, 20 mM Tris, pH 8, 14 °C): 0.0278 s⁻¹
